The assay is described as follows: Sensory evaluation of peptide additive in coffee brew by five expert panelists (Example 4). Particulars: 40 ppm additive in coffee brew; FOLGERS Classic Decaf roast and ground coffee; versus control brew without additive. As to the method:
Coffee brews were prepared using a commercially available roast and ground coffee product (FOLGERS® brand Classic Decaf coffee) using a standard automatic drip coffee brewer (i.e., MR. COFFEE®). The brewing process was carried out as instructed on the coffee package. Each single peptide in Example 1 and peptide compositions in Examples 2 and 3 were mixed into to the coffee brew. Five expert panelists evaluated the effect of peptide additive on coffee flavor profile.

Where no end group is shown, it is not given here.

Take “Pro-Pro-Thr-Leu-Leu (PPTLL) [Peptide (Ic)]”: the “Sensory Evaluation” value is given as “Stronger than control, bitter”.
Then LACHLL [Peptide (Id)], with “Strange non-coffee taste charcoal,”; and EELLPE [Peptide (Ie)], with “Stronger than control, fuller”; and “Pro-Thr-Pro-Leu-Leu (PTPLL) [Peptide (Ia)]”, with “Stronger than control, very bitter”.

The values are drawn from patent US10005816B2, “Peptides and their use in food and beverage” (priority 2014, dated 2018).
